This note sets out measurements from US20250025438A1, “Derivative of aspartic acid and use thereof in treatment of metabolic diseases such as hepatic fibrosis and non-alcoholic hepatitis” (SHENZHEN JINGTAI TECHNOLOGY CO., LTD., priority 2021, published 2025).

Structures can show the parent of a compound that is named as a salt. Where two headings read alike, the source gives them in different places.

Data set [1] can be described thus: Pharmacokinetic testing in rats. The class given is in vivo, SD rats. As to the method:
Rats were used as test animals to study the pharmacokinetic behavior of the following compounds in rat plasma.
The drugs were self-made according to the examples of the present invention.
SD rats, 6-8 weeks old, 3 for each administration method/example, male.
The animals were fasted overnight, ate food 8 hours after taking the drug, and drank water freely.
Blood was collected before administration and at 5 min, 15 min, 30 min, 1 hr, 2 hr, 4 hr, 8 hr and 24 hr after administration.
The blood was placed on wet ice and centrifuged to obtain plasma sample (2000 g, 5 min at 4° C.).
The LC-MS/MS method was used to determine the blood drug concentration. The HPLC conditions were: mobile phase A: H2O-0.5% FA; mobile phase B: ACN-0.5% FA;
WinNonlin 8.2 non-compartmental model was used to estimate pharmacokinetic parameters (PK parameters, including but not limited to peak concentration (Cmax), time to peak (Tmax), terminal elimination rate (Ke), terminal elimination half-life (T1/2), area under drug-time curve (AUC), clearance rate (CL), apparent volume of distribution (Vd), mean residence time (MRT), bioavailability (F), etc.).

Data set [2] relates to α-SMA. The experiment in a line: Activated LX2 cells (TGFβ1), Western blot: α-SMA. The format is cell-based. To be noted: LX2 cells stimulated with TGFβ1 (5 ng/mL), 24 hours, FIG. 4. In general terms: In western blotting, separated proteins are transferred to a membrane and probed.
The mark [3] stands for this setting: male, SD, rat, plasma, PO 20 mg/kg.

As usually defined, the Cmax is the peak of the concentration-time curve. The term AUC(0-t) denotes exposure summed from dosing to a finite time, without extrapolation to infinity. A word on the Tmax: it is the time from dosing to the highest level. Consider `COC(=O)C[C@H](N)C(=O)O` [Compound 6], for which, in data set [1] (PO 20 mg/kg), the “AUC compared with rats administrated with aspartic acid” value is “significantly higher”, the “Cmax compared with rats administrated with aspartic acid” value is given as “significantly higher” and the “Tmax compared with rats administered with aspartic acid” value is “significantly smaller”. The peak concentration (Cmax) in data set [1] (male, SD, rat, plasma, Compound 6 IV 10 mg/kg, read-out: Cmax of Compound 6) is 6.1 µg/mL. For the same compound, the Cmax in data set [1] (male, SD, rat, plasma, Compound 6 PO 40 mg/kg, read-out: Cmax of Compound 6) worked out at 22.5 µg/mL. Further, in data set [1] (setting [3]), the AUC(0-t) is 71.3 µg·h/mL and the Tmax is 30 min. The Cmax in data set [1] (male, SD, rat, plasma, PO 20 mg/kg, read-out: Cmax) came to 14.8 µg/mL.
For `COC(=O)C[C@H](N)C(=O)OCOC(=O)[C@@H](N)CC(=O)OC` [Compound 54, 4-dimethyl O′1,01-methylene (2S,2'S)-bis (2-aminosuccinate) hydrochloride], the “expression of α-SMA in the cells” value in data set [2] is given as “significantly decreased”.
